Test results taken from patent US8252833B2, “Benzo (f) isoindol-2-ylphenyl acetic acid derivatives as EP4 receptor agonists” (Glaxo Group Limited, priority 2006, dated 2012).

Assays:
[1] = tested on: FCA induced hypersensitivity; test: FCA induced hypersensitivity in the rat, weight-bearing readout; assay type: in vivo; details: for Effect of low dose when administered alone: low (ED20) doses alone, p.o. (FIG. 1); for ED20 dose: p.o., reversal of FCA induced hypersensitivity
Protocol: • At the start of the study, naïve weight bearing readings were taken. The hypersensitivity to pain was measured using the Rat incapacitance tester (Linton instruments). • All male rats (RH strain, 180-220 g) then received an intraplantar injection of 100 ul of FCA (Freund's complete adjuvant) into the left hind paw. The ECA was sonicated for 15 minutes prior to use. • 24 hours after administration of the FCA, pre-dose weight bearing readings were taken. All animals were then ranked and randomised for dosing according to their FCA window (predose difference in grams—naïve difference in grams). Rats with FCA window less than 30 were excluded from the study. • Animals were then dosed orally according to ranking and randomisation. Two studies were carried out as follows: • In the first study the ED20 doses of Example 9 and paracetamol were combined using the following protocol, • (1) Vehicle (1% methylcellulose) p.o. • (2) Paracetamol (60 mg/kg) p.o.* • (3) Example 9 (0.1 mg/kg) p.o.* • (4) Example 9 (0.1 mg/kg)+Paracetamol (60 mg/kg) p.o.** • (5) Celecoxib (10 mg/kg) p.o. • *ED20 dose • **Example 9 was dosed initially followed by paracetamol 30 minutes later. • In the second study a fixed dose ratio combination with Example 9 and paracetamol was completed using the following protocol, • (1) Vehicle (1% methylcellulose) p.o.+Vehicle (1% methylcellulose) p.o. • (2) Example 9, 0.003 mg/kg p.o.+Paracetamol, 1.8 mg/kg p.o. • (3) Example 9, 0.01 mg/kg p.o.+Paracetamol, 6 mg/kg p.o. • (4) Example 9, 0.03 mg/kg p.o.+Paracetamol, 18 mg/kg p.o. • (5) Example 9, 0.1 mg/kg p.o.+Paracetamol, 60 mg/kg p.o. • (6) Vehicle (1% methylcellulose) p.o.+Celecoxib, 10 mg/kg p.o. • Animals were assessed in the weight bearing apparatus 1 hour after the dose of paracetamol. • The study was blind and randomised by FCA window using a Latin square method. Preparation Details • All compounds were ground using a pestle and mortar prior to adding the vehicle (1% methylcellulose). Dose volume 5 ml/kg. • All doses were sonicated and stirred before administration. • In this study a positive control was also tested (Celecoxib). […] Statistical Analysis • % reversals were calculated by using the naïve, pre-dose and post dose values as follows: % Reversal=[(Pre-dose−Post-dose)/(Pre-dose−Naïve)]×100. • Graphs and ED50 values were calculated using Prism3. • Statistical analysis was carried out using ANOVA and Fischer LSD test from statistical package Statistica 6. • Synergy was statistically calculated using the synergy macro. The logED50 values and the Standard errors for the individual molecules and the combination study are obtained from Statistica 6 and put into the macro. The fixed dose ratio is specified and the macro then calculates whether the combination was statistically synergistic. It compares the combination data to the theoretical addition of the individual compounds. Results: Percentage Reversal of the Established FCA-Induced Hypersensitivity: […]

[2] = biological target: T1, recombinant human prostanoid EP4 receptor (Homo sapiens, UniProt P35408); test: In vitro cAMP assay in HEK-EP4 cells; assay type: cell-based
T1 construct: expressed in transfected cells; host or cells: HEK-293(T) cells (HEK-EP4, G418 selected)
T1 sequence (P35408 whole entry): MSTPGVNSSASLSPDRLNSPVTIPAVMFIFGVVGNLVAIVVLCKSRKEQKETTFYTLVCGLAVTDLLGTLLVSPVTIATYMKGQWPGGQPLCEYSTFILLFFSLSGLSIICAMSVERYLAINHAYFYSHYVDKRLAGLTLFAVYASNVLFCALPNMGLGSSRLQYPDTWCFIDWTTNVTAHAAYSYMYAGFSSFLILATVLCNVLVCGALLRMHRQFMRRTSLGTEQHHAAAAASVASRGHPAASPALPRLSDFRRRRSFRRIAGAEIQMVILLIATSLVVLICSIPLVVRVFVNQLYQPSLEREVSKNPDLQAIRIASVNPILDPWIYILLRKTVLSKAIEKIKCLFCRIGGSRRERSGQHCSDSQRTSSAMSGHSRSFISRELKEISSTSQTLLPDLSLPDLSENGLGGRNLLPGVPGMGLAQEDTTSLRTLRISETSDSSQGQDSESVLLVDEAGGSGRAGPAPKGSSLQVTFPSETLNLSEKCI
Protocol: Cells were grown as a monolayer culture in DMEM-F12/F12 containing glutamax II (Gibco) and supplemented with 10% foetal bovine serum (Gibco) and 0.4 mg.ml-1 G418. HEK-EP4 cells were pre-treated 24 hr and 30 mins prior to the experiment with 10 μM indomethacin and harvested using Versene containing 10 μM indomethacin. The cells were resuspended in assay buffer (DMEM:F12, 10 μM indomethacin and 200 μM IBMX) at 1×10^6 cells per ml and incubated for 20 min at 37° C. Thereafter, 50 μl of cells were added to 50 μl agonist (compound of Formula (I)) and incubated at 37° C. for 4 minutes before stopping reactions with 1000 of 1% triton X-100. cAMP levels in the cell lysates were determined using a competition binding assay. In this assay the ability of cell lysates to inhibit 3H-cAMP (Amersham) binding to the binding subunit of protein kinase A was measured and cAMP levels were calculated from a standard curve. The data for each compound were expressed as a % of the response to a 10 nM maximal concentration of the standard agonist PGE2. For each compound the maximal response and concentration of compound causing 50% of its maximal response were calculated. Intrinsic activity is expressed relative to the maximal response to PGE2. Unless stated, reagents were purchased commercially from Sigma.

[3] = Oral pharmacokinetics in the rat; details: in vivo, read-out: oral pharmacokinetic half life (converted)

Row | Compound | Effect of low dose when administered alone [1] | ED20 dose ([1]; rat) [mg/kg] | EC50 [2] [nM] | Emax ([2]; maximal response relative to the maximal response to PGE2 (10 nM), read-out: average intrinsic activity) [%] | EC50 at 3 mg/kg ([1]; Rattus norvegicus) [nM] | reversal of eFCA-induced hypersensitivity ([1]; dosed alone at 3 mg/kg, rat) [%] | half-life [3] [h]
1 | CC(=O)Nc1ccc(O)cc1 [Paracetamol, paracetamol, reference compound] | ineffective | 60 | – | – | – | – | –
2 | CCOc1c2c(c(OCC)c3ccccc13)C(=O)N(c1ccc(CC(=O)O)c(F)c1)C2 [Example 9, {4-[4,9-Bis(ethyloxy)-1-oxo-1,3-dihydro-2H-benzo[f]isoindol-2-yl]-2-fluorophenyl}acetic acid] | ineffective | 0.1 | 39.8 | 68 | 600 | 80 | 7.6
